Assay: in vitro
Conditions: African green monkey (COS-1); Chinese hamster (CHO)

Row | Compound | IC50 at 24 h
1 | C[C@H]1c2cccc(O)c2C(=O)C2=C(O)[C@]3(O)C(=O)C(C(N)=O)=C(O)[C@@H](N(C)C)[C@@H]3[C@@H](O)[C@@H]21 [doxycycline] | > 25 µg/mL
2 | CN(C)c1ccc(O)c2c1C[C@H]1C[C@H]3[C@H](N(C)C)C(O)=C(C(N)=O)C(=O)[C@@]3(O)C(O)=C1C2=O [minocycline] | > 25 µg/mL

Source: patent US8088820B2, “Substituted tetracycline compounds for the treatment of malaria” (Paratek Pharmaceuticals, Inc., priority 2001, dated 2012)
